# Results: patent US4211764A, “Gastric secretion stimulation with 2-amino-5-(2-aminoethyl)-1,3,4-thiadiozole” (priority 1978, dated 1980)
# “Also recorded” adds a separate entry of the source. Read-outs that look alike come from different tables or passages of the source.
# How the values were obtained:
# dog's stomach = experiment: Gastric secretion in dogs, administration per os; type: in vivo
# Experimental: Chronic experiments were performed on male dogs weighing 20 to 25 kg and having a gastric fistula; prior to experiments, the animals were starved for 18 hours.
# gastric juice = experiment: Acute Shay test (pylorus ligation); type: in vivo, rat; conditions: rats, 8 mg/kg intraperitoneally
# Experimental: Twenty acute Shay tests were performed on male rats weighing 250 to 300 g. The pylorus of each of the animals was ligated 2 hours before the slaughter. The pH and volume of the gastric juice were determined. […] In the control group, pH of the gastric juice was 2.2, and the average HCl output was 0.12 mEq per animal. In the experimental animals, pH of the gastric juice was 1.6, and the HCl output was 0.41 mEq.
# arterial pressure = experiment: Arterial pressure in anesthetized cats
# Experimental: These experiments were performed on 11 cats weighing 2.5 to 4.0 kg and anesthetized with urethane-chlorazol mixture containing 60 mg/kg of chlorazol and 600 mg/kg of urethane. The arterial pressure was measured in the common carotid artery with the aid of a mercury pressure gauge.
# H1 -receptors = target: T1, H1 -receptors (Cavia porcellus, UniProt P31389); experiment: Contraction of isolated ileum; conditions: guinea pig ileum; read-out: pD2 value in relation to H1 -receptors (converted)
# T1 construct: from tissue; host or cells: isolated guinea pig ileum
# T1 sequence (P31389 whole entry): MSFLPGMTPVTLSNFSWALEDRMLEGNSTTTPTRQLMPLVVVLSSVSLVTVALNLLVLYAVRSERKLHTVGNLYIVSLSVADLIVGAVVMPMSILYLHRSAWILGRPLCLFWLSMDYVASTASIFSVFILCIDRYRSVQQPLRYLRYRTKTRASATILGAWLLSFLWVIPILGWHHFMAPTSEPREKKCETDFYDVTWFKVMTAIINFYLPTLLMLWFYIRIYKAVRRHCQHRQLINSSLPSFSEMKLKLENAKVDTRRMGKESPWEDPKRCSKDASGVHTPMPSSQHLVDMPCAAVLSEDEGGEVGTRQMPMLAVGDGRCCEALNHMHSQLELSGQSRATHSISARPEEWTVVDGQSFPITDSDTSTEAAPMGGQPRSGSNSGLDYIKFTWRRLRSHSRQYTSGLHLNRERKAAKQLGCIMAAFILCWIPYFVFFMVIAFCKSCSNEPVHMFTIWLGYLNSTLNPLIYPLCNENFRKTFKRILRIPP
# H2 -receptors = target: T2, H2 -receptors (Cavia porcellus, UniProt P47747); experiment: Heart rate of isolated auricles; conditions: isolated guinea pig auricles; read-out: pD2 value, H2 -receptors (heart rate) (converted)
# T2 construct: from tissue; host or cells: isolated guinea pig auricles (atria)
# T2 sequence (P47747 whole entry): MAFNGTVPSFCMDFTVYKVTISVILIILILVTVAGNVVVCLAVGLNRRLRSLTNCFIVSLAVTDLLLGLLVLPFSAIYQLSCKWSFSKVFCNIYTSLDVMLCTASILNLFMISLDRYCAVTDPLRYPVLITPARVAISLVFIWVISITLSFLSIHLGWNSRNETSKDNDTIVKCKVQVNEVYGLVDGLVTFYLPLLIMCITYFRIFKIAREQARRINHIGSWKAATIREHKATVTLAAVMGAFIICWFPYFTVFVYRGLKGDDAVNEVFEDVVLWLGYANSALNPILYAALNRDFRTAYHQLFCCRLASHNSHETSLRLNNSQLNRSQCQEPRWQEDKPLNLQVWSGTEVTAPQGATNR
# Experimental: Changes in the heart rate were measured, dose-response curves were plotted, and pD2 values were calculated.
# Acute toxicity, rats = conditions: rat, in vivo, ip; male rats, 200-250 g, i/p
# Description: (§1) The results of the tests are generalized in Table 1.
# [1] = Acute toxicity, guinea pigs; conditions: guinea pig, in vivo, male guinea pigs
# Description: as §1
# Male guinea pigs = experiment: Chronic toxicity, daily intravenous injections in guinea pigs; type: in vivo
# Description: Male guinea pigs weighing 200-250 g
# 1. Daily intravenous injections of thidazine
# Bulbar Conjunctiva = test system: Bulbar Conjunctiva; set-up: species or system guinea pigs, rabbits; conditions: in vivo
# Description: C. Irritant Action of 1-5% Solutions On
# intramuscular injection
# male rabbits = conditions: rabbit, in vivo
# Experimental: | D. Allergic Action | (Arthus-Sakharov Phenomenon) | Daily injections to male rabbits | weighing 3.0 kg, during 6 to 7 days: | test group, hypodermic injections of | 0.1 ml of 1% solution | control group, injections of 0.1 ml | of normal horse serum
# Respiration = experiment: Effects on depth and rate of respiration; type: in vivo, rabbits and cats
# Description: E. Effects on Depth and Rate of
# Respiration (rabbits and cats)
# male dogs = experiment: Chronic toxicity, dogs per os; type: in vivo; conditions: for Bilirubin content / Glutamic-alanine transaminase content: 200 mg per os daily, Test
# Experimental: Three male dogs weighing 22 to 25 kg
# 1. Administration per os, 200 mg
# (in gelatin capsules), admini-
# stration performed once a day
# during 10 days, one animal being
# [2] = test system: gastric secretion of patients of middle age group; experiment: Clinical test: effects of maximum doses upon gastric secretion of patients; type: in vivo, human; conditions: 2mg/kg; for Gastric Juice, Δ% / HCl Concentration, Δ% / Hourly HCl output, Δ%: 2nd versus 1st hour
# Description: (§2) Special attention was paid to side effects and the reproductibility of the secretory response after repeated administrations of the drug.
# [3] = test system: gastric secretion of patients; experiment: Clinical comparison of thidazine with simple histamine test; type: in vivo, human; conditions: 20 patients; thidazine 1.5 mg/kg parenteral, histamine 0.01 mg/kg; >0.05
# Description: as §2
# gastric secretion = type: in vivo, human
# Description: as §2
# The clinical investigation also helped to determine effective doses of the proposed preparation for submaximum and maximum tests and different forms of administration.
# [4] = 20 mg/kg i/v daily 10 days, beginning of experiment
# [5] = 20 mg/kg i/v daily 10 days, end of experiment
# [6] = 0.1-0.2 mg/kg i/m, Control Period
# [7] = 0.1-0.2 mg/kg i/v, Control Period
# [8] = hypodermic, 1st hour (basal secretion)
# [9] = hypodermic, 2nd hour (response to drug)
# [10] = per os, 1st hour (basal secretion)
# [11] = per os, 2nd hour (response to drug)
structure (smiles),measurement,setting,value
"NCCc1nnc(N)s1 [Thidazine, 2-amino-5-(2-aminoethyl)-1,3,4-thiadiazole]",maximum level of gastric secretion,"dog's stomach; per os, 100 mg per head",26 mEq per hour
same,gastric secretion after administration per os,"dog's stomach; thidazine 100 mg per head (parenterally and per os), histamine 10 and 20 mg, histalog 50 and 100 mg",can produce a maximum secretory effect when administered both parenterally and per os; also recorded: can produce a maximum secretion in a dog's stomach when administered both parenterally and perorally
same,increase of output of hydrochloric acid after ligation of the pylorus,gastric juice,increased the output of hydrochloric acid more than threefold
same,HCl Output,gastric juice; control group 0.12 mEq per animal,0.41 mEq
same,pH of the gastric juice,gastric juice; control group 2.2,1.6
same,reduction of arterial pressure,"arterial pressure; anesthetized cats, 0.1 mg/kg intravenous",30 mm of mercury
same,hypotensive reaction,"arterial pressure; cats, doses below 0.1 mg/kg intravenous",No hypotensive reaction was observed
same,EC50,H1 -receptors,398 µM
same,EC50,H2 -receptors,7.94 µM
same,LD50,"Acute toxicity, rats",1 mg/kg
same,LD50,"[1]; ip, 280-350 g, i/p",360 mg/kg
same,LD50,"[1]; iv, 200-250 g, i/v",190 mg/kg
same,Coagulability of Blood,Male guinea pigs; 20 mg/kg i/v daily 10 days,No changes
same,Differential Blood Count,Male guinea pigs; 20 mg/kg i/v daily 10 days,No significant changes
same,ECG at beginning and end of experiment,Male guinea pigs; 20 mg/kg i/v daily 10 days,No significant changes
same,Average weight in test group,"Male guinea pigs; 20 mg/kg i/v daily 10 days, Control Period (beginning)",220.0 ± 58 g
same,Average weight in test group,"Male guinea pigs; 20 mg/kg i/v daily 10 days, Test Period (end)",252.3 ± 50 g
same,"ESR, test group",Male guinea pigs; [4],2 mm
same,"Erythrocytes, test group",Male guinea pigs; [4],3.75 ± 0.1 mln.
same,"Hemoglobin, test group",Male guinea pigs; [4],11.8 ± 0.1%
same,"Leukocytes, test group",Male guinea pigs; [4],11360 ± 900 thous.
same,"ESR, test group",Male guinea pigs; [5],2 mm
same,"Erythrocytes, test group",Male guinea pigs; [5],3.93 ± 0.1 mln.
same,"Hemoglobin, test group",Male guinea pigs; [5],12.4 ± 0.3%
same,"Leukocytes, test group",Male guinea pigs; [5],9500 ± 835 thous.
same,effect upon growth and development and blood composition,"Male guinea pigs; two animal species, 1/10 LD50",no significant effect
same,pathological changes in the vital organs,"Male guinea pigs; two animal species, 1/10 LD50",causes no pathological changes in the vital organs
same,Irritant Action,Bulbar Conjunctiva,Negative reaction
same,Allergic Action (Arthus-Sakharov Phenomenon),male rabbits,Negative reaction
same,Respiration amplitude,"Respiration; 1 mg/kg i/v, Control Period",10.0 ± 0.8 mm
same,Respiration rate per minute,"Respiration; 1 mg/kg i/v, Control Period",120 ± 10.0 per minute
same,Respiration amplitude,"Respiration; 1 mg/kg i/v, Test Period",14.0 ± 0.4 mm
same,Respiration rate per minute,"Respiration; 1 mg/kg i/v, Test Period",85.0 ± 6.0 per minute
same,Respiration amplitude,"Respiration; 2 mg/kg i/v, Control Period",110.0 ± 7.0 mm
same,Respiration rate per minute,"Respiration; 2 mg/kg i/v, Control Period",100.0 ± 8.0 per minute
same,Respiration amplitude,"Respiration; 2 mg/kg i/v, Test Period",140 ± 20.0 mm
same,Respiration rate per minute,"Respiration; 2 mg/kg i/v, Test Period",85.0 ± 10.0 per minute
same,Respiration amplitude,Respiration; [6],160.0 ± 6.2 mm
same,Respiration rate per minute,Respiration; [6],79.0 ± 2.0 per minute
same,Respiration amplitude,"Respiration; 0.1-0.2 mg/kg i/m, Test Period",160 ± 10.1 mm
same,Respiration rate per minute,"Respiration; 0.1-0.2 mg/kg i/m, Test Period",78.0 ± 2.3 per minute
same,Respiration amplitude,Respiration; [7],220 ± 0.3 mm
same,Respiration rate per minute,Respiration; [7],90.0 ± 0.2 per minute
same,Respiration amplitude,"Respiration; 0.1-0.2 mg/kg i/v, Test Period",180 ± 0.1 mm
same,Respiration rate per minute,"Respiration; 0.1-0.2 mg/kg i/v, Test Period",85.0 ± 0.4 per minute
same,"Behavior, food reflexes",male dogs; 200 mg per os daily 10 days,No changes
same,Bilirubin content,male dogs; 5th day,0.15 mg%
same,Glutamic-alanine transaminase content,male dogs; 5th day,30 units
same,Bilirubin content,male dogs; 10th day,0.15 mg%
same,Glutamic-alanine transaminase content,male dogs; 10th day,32 units
same,Bilirubin content,male dogs; at beginning,0.16 mg%
same,Glutamic-alanine transaminase content,male dogs; beginning,30 units
same,Histological Examination of Internal Organs,"male dogs; dog, in vivo",No microscopic changes
same,"Urinalysis: volume, specific weight, protein, microscopy of urinary sediment","male dogs; dog, in vivo",No significant changes
same,Gastric Juice,[2]; [8],87.0 ml per hour
same,HCl Concentration,[2]; [8],43.9 milliequivalents per liter
same,Gastric Juice,[2]; [9],200.5 ml per hour
same,HCl Concentration,[2]; [9],100.8 milliequivalents per liter
same,"Gastric Juice, Δ%",[2]; hypodermic,+130.5%
same,"HCl Concentration, Δ%",[2]; hypodermic,+129.6%
same,"Hourly HCl output, Δ%",[2]; hypodermic,+471.9%
same,Hourly HCl output,"[2]; hypodermic, 11 observations, 1st hour (basal secretion)",8.2 milliequivalents per hour
same,Hourly HCl output,"[2]; hypodermic, 11 observations, 2nd hour (response to drug)",18.3 milliequivalents per hour
same,Gastric Juice,[2]; [10],102.1 ml per hour
same,HCl Concentration,[2]; [10],33.3 milliequivalents per liter
same,Gastric Juice,[2]; [11],227.9 ml per hour
same,HCl Concentration,[2]; [11],103.2 milliequivalents per liter
same,"Gastric Juice, Δ%",[2]; per os,+123%
same,"HCl Concentration, Δ%",[2]; per os,+209.9%
same,"Hourly HCl output, Δ%",[2]; per os,+402.3%
same,Hourly HCl output,"[2]; per os, 13 observations, 1st hour (basal secretion)",4.3 milliequivalents per hour
same,Hourly HCl output,"[2]; per os, 13 observations, 2nd hour (response to drug)",21.6 milliequivalents per hour
same,Free Acidity,[3],77.0+20 units
same,HCl Output,[3],12.2 ± 0.7 milliequivalents per hour
same,Peak HCl Output,[3],8.9+0.3 milliequivalents
same,Total Acidity,[3],90.3+22 units
same,dose for maximum secretion test,gastric secretion; hypodermic or intramuscular,1.6 mg/kg
same,dose for submaximum secretion test,gastric secretion; hypodermic or intramuscular,0.8 mg/kg
same,secretory activity compared with histamine and pentagastrin,"gastric secretion; patients, adequate doses",close to histamine and pentagastrin
same,effectiveness per os compared with parenteral,"gastric secretion; patients, tablets or solutions",as effectively as parenterally
same,dose for maximum secretion test,gastric secretion; per os,2.0 mg/kg
same,dose for submaximum secretion test,gastric secretion; per os,1.5 mg/kg
